Results from ChEMBL document CHEMBL4823297, “Anticancer properties of bisaminoquinolines with modified linkers” (Bioorg Med Chem Lett, 2021).

Tests used:
[1] = Inhibition of autophagy in human A375P cells assessed as fold change in BNIP3 at 3 uM incubated for 24 hrs by immunoblot analysis relative to control; format: functional
[2] = Inhibition of autophagy in human A375P cells assessed as fold change in p62 at 3 uM incubated for 24 hrs by immunoblot analysis relative to control; format: functional
[3] = Inhibition of autophagy in human A375P cells assessed as fold change in LC3BII/ LC3BI ratio at 3 uM incubated for 24 hrs by immunoblot analysis relative to control; format: functional
[4] = Inhibition of autophagy in human A375P cells assessed as fold change in p-H2AX at 3 uM incubated for 24 hrs by immunoblot analysis relative to control; format: functional
[5] = Cytotoxicity against human A375P cells incubated for 72 hrs by MTT assay; format: functional, cell-based
[6] = Inhibition of autophagy in human A375P cells assessed as fold change in BNIP3 at 10 uM incubated for 24 hrs by immunoblot analysis relative to control; format: functional
[7] = Inhibition of autophagy in human A375P cells assessed as fold change in p62 at 10 uM incubated for 24 hrs by immunoblot analysis relative to control; format: functional
[8] = Inhibition of autophagy in human A375P cells assessed as fold change in LC3BII/ LC3BI ratio at 10 uM incubated for 24 hrs by immunoblot analysis relative to control; format: functional
[9] = Inhibition of autophagy in human A375P cells assessed as fold change in H2AX at 10 uM incubated for 24 hrs by immunoblot analysis relative to control; format: functional

Clc1ccc2c(NCCCCCCNCCCCCCNc3ccnc4cc(Cl)ccc34)ccnc2c1
fold change (FC) [1]: 1.3
fold change (FC) [2]: 1.1
fold change (FC) [3]: 15.2
fold change (FC) [4]: 20.8

NCCN(CCNc1ccnc2cc(Cl)ccc12)CCNc1ccnc2cc(Cl)ccc12
IC50 [5]: 12300 nM
fold change (FC) [6]: 0.7
fold change (FC) [7]: 0.5
fold change (FC) [8]: 1
fold change (FC) [9]: 1.4

CCOCCOCCN(CCCCCCNc1ccnc2cc(Cl)ccc12)CCCCCCNc1ccnc2cc(Cl)ccc12
fold change (FC) [1]: 5.1
fold change (FC) [2]: 2.7
fold change (FC) [3]: 28
IC50 [5]: 650 nM

CCCCCCCCN(CCCCCCNc1ccnc2cc(Cl)ccc12)CCCCCCNc1ccnc2cc(Cl)ccc12
fold change (FC) [1]: 0.7
fold change (FC) [2]: 1.6
fold change (FC) [3]: 27
IC50 [5]: 420 nM

CN(C)CCN(CCNc1ccnc2cc(Cl)ccc12)CCNc1ccnc2cc(Cl)ccc12
IC50 [5]: 4600 nM
fold change (FC) [6]: 1.7
fold change (FC) [7]: 0.8
fold change (FC) [8]: 4.8
fold change (FC) [9]: 3

CNCCN(CCNc1ccnc2cc(Cl)ccc12)CCNc1ccnc2cc(Cl)ccc12
IC50 [5]: 13000 nM
fold change (FC) [6]: 0.4
fold change (FC) [7]: 0.6
fold change (FC) [8]: 0.8
fold change (FC) [9]: 1.4

CCCCCCCCN(CCNc1ccnc2cc(Cl)ccc12)CCNc1ccnc2cc(Cl)ccc12
fold change (FC) [1]: 5.9
fold change (FC) [2]: 4
fold change (FC) [3]: 26
IC50 [5]: 1280 nM

CCOCCOCCN(CCNc1ccnc2cc(Cl)ccc12)CCNc1ccnc2cc(Cl)ccc12
IC50 [5]: 5990 nM

CN(CCCCCCNc1ccnc2cc(Cl)ccc12)CCCCCCNc1ccnc2cc(Cl)ccc12
fold change (FC) [1]: 3.2
fold change (FC) [2]: 1.8
fold change (FC) [3]: 24
IC50 [5]: 490 nM
fold change (FC) [4]: 4.7
